We go through five compounds from patent US20250197343A1, “CATIONIC LIPID” (TAKEDA PHARMACEUTICAL COMPANY LIMITED, priority 2021, published 2025).

Structures are written as SMILES.

The subject of one series is ICrl:CD1 (ICR) mice. The series is described as follows: Mouse bioluminescence imaging evaluation (Test Example 1). To be noted: Luc DNA-encapsulated lipid nanoparticles 10 mL/kg i.v. to ICR mice; IVIS total flux 15 minutes after luciferin i.p. Format: in vivo. The gist of the method: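 ICR mice received Luc DNA-encapsulated lipid nanoparticles i.v. (10 mL/kg), then luciferin 15 mg/mL i.p. (10 mL/kg). Ventral IVIS imaging under isoflurane 15 min after luciferin; total flux scored A (≥3.0E+07), B (1.0E+07 to <3.0E+07), C (<1.0E+07).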

Another series concerns Huh-7 cells. The series is described as follows: Evaluation of viability using Huh-7 cells (Test Example 2). The format is cell-based. To be noted: Huh-7 cells, Luc DNA-encapsulated lipid nanoparticles, PBS group = 100%, dead cell group = 0%; for Viability 0.1 μg/ml (%): final concentration 0.1 μg/mL; for Viability 0.3 μg/ml (%): final concentration 0.3 μg/mL. How it is done:
Huh-7 cells were seeded in a 96-well plate, and PBS, the Luc DNA-encapsulated lipid nanoparticles obtained in the aforesaid Production Example by using the cationic lipids of the Examples shown in Table 3, or Luc DNA-encapsulated lipid nanoparticles for control which were obtained in the same manner as in the aforesaid Production Example except that a known lipid, MC3 (DLin-MC3-DMA) or ALC-0315, was used instead of the cationic lipids of the Examples were added thereto (final concentration: 0.1 μg/mL and 0.3 μg/mL), followed by evaluation of viability (CellTiter-Fluor Cell Viability Assay, Promega Corporation). Taking the viability of dead cell group as 0% and the viability of the PBS group as 100%, the viability of each of the lipid particle groups was calculated. Higher viability indicates higher safety of the lipid particles. When the cationic lipids of the Examples were used, an improvement in safety compared to the control groups of MC3 and ALC-0315 was observed.

A short description of series [1]: Rate of encapsulation of Luc DNA in lipid nanoparticles. The format is physicochemical. Also on record: unit: %. To be noted: Luc DNA-encapsulated lipid nanoparticles; cationic lipid:DPPC:cholesterol:GM-020=60:10.6:28:1.4 molar ratio. Summed up:
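Luc DNA-LNPs (cationic lipid:DPPC:cholesterol:GM-020 = 60:10.6:28:1.4 molar) formed by microfluidic mixing with DNA in 10 mM MES pH 5.5, then dialyzed into PBS. RiboGreen fluorescence measured with and without Triton X-100; encapsulation rate is the encapsulated fraction of total nucleic acid.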

Series [2] is described as follows: Particle size of Luc DNA-encapsulated lipid nanoparticles. To be noted: cationic lipid:DPPC:cholesterol:GM-020=60:10.6:28:1.4 molar ratio. The format is physicochemical. Summed up:
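LNPs of cationic lipid:DPPC:cholesterol:GM-020 (60:10.6:28:1.4 molar) encapsulating luciferase DNA, made by microfluidic mixing with DNA in 10 mM MES pH 5.5, dialysed into PBS, stored in 20% sucrose/PBS at −80 °C. Size by dynamic light scattering, reported as cumulant Z-average.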

Consider `CCCCCC(CCCCC)CC(=O)OCC(COC(=O)CCCCC(=O)OCC(CCC)CCC)(COC(=O)CCCCC(=O)OCC(CCC)CCC)COC(=O)CCCN(C)C` [Example 115, 1,1′-[2-({[4-(Dimethylamino)butanoyl]oxy}methyl)-2-{[(3-pentyloctanoyl)oxy]methyl}propane-1,3-diyl] 6,6′-bis(2-propylpentyl) dihexanedioate], for which the Luminescence result in the series on ICrl:CD1 (ICR) mice is recorded as “A (A represents luminescence of 3.0E+07 or more)”. Also, in the series with Huh-7 cells, the “Viability 0.1 μg/ml (%)” value is 110% and the “Viability 0.3 μg/ml (%)” value amounted to 100%. The Rate of encapsulation in series [1] is reported as 95.7. In addition, in series [2], the “Particle size (nm)” value is on record as 109.6 nm.
For `CCCCCCCOC(=O)CCCCC(=O)OCC(COC(=O)CCCCC(=O)OCCCCCCC)(COC(=O)CCCN(C)C)COC(=O)CC(CCC)CCCCCCC` (stereo not shown) [Example 28, 1,1′-[2-({[4-(Dimethylamino)butanoyl]oxy}methyl)-2-{[(3-propyldecanoyl)oxy]methyl}propane-1,3-diyl] 6,6′-diheptyl dihexanedioate], in that order: “A (A represents luminescence of 3.0E+07 or more)”, 113%, 110%, 94.9 and 137.3 nm.
Take `CCCCCC(CCCCC)COC(=O)CCC(=O)OCC(COC(=O)CCCN(C)C)(COC(=O)CCC(=O)OCC(CCCCC)CCCCC)COC(=O)CCC(=O)OCC(CCCCC)CCCCC` [Example 37, 1,1′-{2-({[4-(Dimethylamino)butanoyl]oxy}methyl)-2-[({4-oxo-4-[(2-pentylheptyl)oxy]butanoyl}oxy)methyl]propane-1,3-diyl} 4,4′-bis(2-pentylheptyl) dibutanedioate]: the Luminescence result in the series on ICrl:CD1 (ICR) mice was “A (A represents luminescence of 3.0E+07 or more)”. Further, in the series with Huh-7 cells, the “Viability 0.1 μg/ml (%)” value was determined as 111% and the “Viability 0.3 μg/ml (%)” value was determined as 98%. Moreover, the Rate of encapsulation in series [1] was found to be 97.0. The “Particle size (nm)” value in series [2] came out at 124.1 nm.
As for `CCCCCCCCCCOC(=O)CCCCC(=O)OCC(COC(=O)CCCCC(=O)OCCCCCCCCCC)(COC(=O)CCCN(C)C)COC(=O)CC(CCCCC)CCCCC` [Example 45, 1,1′-Didecyl 6,6′-[2-({[4-(dimethylamino)butanoyl]oxy}methyl)-2-{[(3-pentyloctanoyl)oxy]methyl}propane-1,3-diyl] dihexanedioate], the Luminescence entry in the series on ICrl:CD1 (ICR) mice is given as “A (A represents luminescence of 3.0E+07 or more)”. Besides, in the series on Huh-7 cells, the “Viability 0.1 μg/ml (%)” value amounted to 108% and the “Viability 0.3 μg/ml (%)” value came out at 103%. Moreover, the Rate of encapsulation in series [1] was 95.6. For the same compound, in series [2], the “Particle size (nm)” value is listed as 119.0 nm.
On to `CCCCCCCCC(C(=O)OC)C(=O)OCC(COC(=O)CCCN(C)C)(COC(=O)CC(CCCCC)CCCCC)COC(=O)C(CCCCCCCC)C(=O)OC` (stereo not shown) [Example 132, 1,1′-[2-({[4-(Dimethylamino)butanoyl]oxy}methyl)-2-{[(3-pentyloctanoyl)oxy]methyl}propane-1,3-diyl] 3,3′-dimethyl bis(octylpropanedioate)], for which, in the series on ICrl:CD1 (ICR) mice, the Luminescence entry is given as “A (A represents luminescence of 3.0E+07 or more)”. Further, in the series on Huh-7 cells, the “Viability 0.1 μg/ml (%)” value worked out at 95% and the “Viability 0.3 μg/ml (%)” value is listed as 94%. Also, in series [1], the Rate of encapsulation stood at 96.5. Also, the “Particle size (nm)” value in series [2] is on record as 129.2 nm.
